From ChEMBL document CHEMBL1146625, “The kinetics of binding to p38MAP kinase by analogues of BIRB 796” (Bioorg Med Chem Lett, 2003)

Biological target: T1, Mitogen-activated protein kinase 14 (Homo sapiens, UniProt Q16539)
Assay: Binding affinity for Mitogen-activated protein kinase p38 alpha

T1 sequence (Q16539 whole entry): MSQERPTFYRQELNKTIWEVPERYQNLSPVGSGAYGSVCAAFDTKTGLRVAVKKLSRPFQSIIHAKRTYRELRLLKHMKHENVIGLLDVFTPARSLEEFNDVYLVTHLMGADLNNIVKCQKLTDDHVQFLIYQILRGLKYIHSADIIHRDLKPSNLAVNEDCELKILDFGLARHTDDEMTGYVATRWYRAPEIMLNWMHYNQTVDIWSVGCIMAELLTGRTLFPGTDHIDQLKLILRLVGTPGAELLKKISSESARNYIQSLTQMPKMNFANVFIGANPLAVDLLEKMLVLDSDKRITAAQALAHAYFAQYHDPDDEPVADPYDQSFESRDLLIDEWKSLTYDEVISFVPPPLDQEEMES

In order of rising Kd:
1. CC(C)(C)c1cc(NC(=O)Nc2ccc(OCCN3CCOCC3)c3ccccc23)n(-c2ccccc2)n1  0.097 nM
2. Cc1ccc(-n2nc(C(C)(C)C)cc2NC(=O)Nc2ccc(OCCN3CCOCC3)c3ccccc23)cn1  1.1 nM
3. Cc1ccc(-n2nc(C(C)(C)C)cc2NC(=O)Nc2cccc3ccccc23)cc1  1.1 nM
4. Cc1ccc(-n2nc(C(C)(C)C)cc2NC(=O)Nc2ccc(CCCN3CCOCC3)c3ccccc23)cc1  1.2 nM
5. Cc1ccc(-n2nc(C(C)(C)C)cc2NC(=O)Nc2ccc(OCCN3CCOCC3)c3ccccc23)cc1C(=O)O  2.5 nM
6. Cc1ccc(-n2nc(C(C)(C)C)cc2NC(=O)Nc2ccc(OCCN3CCOCC3)c3ccccc23)cc1CN(C)C  4.8 nM
7. CC(C)c1cc(NC(=O)Nc2ccc(OCCN3CCOCC3)c3ccccc23)n(-c2ccccc2)n1  5.9 nM
8. COc1cc(NC(=O)Nc2cc(C(C)(C)C)nn2-c2ccc(C)cc2)c2ccccc2c1  9.4 nM
9. COc1cc(NC(=O)Nc2cc(C(C)(C)C)nn2-c2ccc(C)cc2)c2ccccc2c1OCCN1CCOCC1  14 nM
10. Cc1ccc(-n2nc(C(C)(C)CO)cc2NC(=O)Nc2ccc(OCCN3CCOCC3)c3ccccc23)cc1  16 nM
11. CN(C)Cc1cccc(-n2nc(C(C)(C)C)cc2NC(=O)Nc2ccc(OCCN3CCOCC3)c3ccccc23)c1  16 nM
12. Cc1ccc(-n2nc(C(C)(C)C)cc2NC(=O)Nc2ccccc2)cc1  22 nM
13. Cn1nc(C(C)(C)C)cc1NC(=O)Nc1ccc(OCCN2CCOCC2)c2ccccc12  23 nM
14. O=C(Nc1ccc(OCCN2CCOCC2)c2ccccc12)Nc1ccnn1-c1ccccc1  2000 nM

Biological target: T1, Mitogen-activated protein kinase 14
Description: Rate of dissociation from Mitogen-activated protein kinase p38 alpha

In order of falling k off:
1. Cc1ccc(-n2nc(C(C)(C)C)cc2NC(=O)Nc2ccc(OCCN3CCOCC3)cc2)cc1  0.0039 s⁻¹
2. Cc1ccc(-n2nc(C(C)(C)C)cc2NC(=O)Nc2ccc(OCCN3CCOCC3)c3ccccc23)cc1C(=O)O  6.2e-05 s⁻¹

Biological target: T1, Mitogen-activated protein kinase 14
Remark: another data set of the same source
Description: Rate of association to Mitogen-activated protein kinase p38 alpha

In order of falling k on:
1. Cc1ccc(-n2nc(C(C)(C)C)cc2NC(=O)Nc2ccc(OCCN3CCOCC3)c3ccccc23)cc1C(=O)O  25200 M⁻¹ s⁻¹
2. Cc1ccc(-n2nc(C(C)(C)C)cc2NC(=O)Nc2ccc(OCCN3CCOCC3)cc2)cc1  13000 M⁻¹ s⁻¹
